# Experimental data from ChEMBL document CHEMBL4138075, “Concise synthesis and antiproliferative activity evaluation of ellipticine quinone and its analogs” (Eur J Med Chem, 2017).
# Columns and labels:
# HCT-116 = assay: Antiproliferative activity against human HCT116 cells measured after 48 hrs by MTT assay; type: functional, cell-based; details: HCT-116, 48 h
# HL-60 = assay: Antiproliferative activity against human HL60 cells measured after 48 hrs by WST1 assay; type: functional, cell-based; details: HL-60, 48 h
IC50 (HCT-116) [µM],IC50 (HL-60) [µM],Structure (SMILES)
0.877,3.29,O=C1c2ccncc2C(=O)c2c1[nH]c1ccccc21
4.62,> 10,O=C1c2ccncc2C(=O)c2c1[nH]c1cc(C(F)(F)F)ccc21
0.187,1.35,O=C1c2ccncc2C(=O)c2c1[nH]c1ccc([N+](=O)[O-])cc21
1.38,3.88,O=C1c2ccncc2C(=O)c2c1[nH]c1ccc(Cl)cc21
3.14,9.01,COc1ccc2c3c([nH]c2c1)C(=O)c1ccncc1C3=O
4.07,> 10,O=C1c2ccncc2C(=O)c2c1[nH]c1cc(Cl)ccc21
1.64,5.08,O=C1c2ccncc2C(=O)c2c1[nH]c1ccc(C(F)(F)F)cc21
0.849,4.27,Cc1ccc2[nH]c3c(c2c1)C(=O)c1cnccc1C3=O
1.25,4.43,O=C1c2ccncc2C(=O)c2c1[nH]c1cc([N+](=O)[O-])ccc21
5.79,> 10,Cc1ccc2c3c([nH]c2c1)C(=O)c1ccncc1C3=O
3.72,7.49,COc1cc2[nH]c3c(c2cc1OC)C(=O)c1cnccc1C3=O
1.13,4.5,O=C1c2ccncc2C(=O)c2c1[nH]c1ccc(F)cc21
1.6,4.5,O=C1c2ccncc2C(=O)c2c1[nH]c1cc(F)ccc21
5.43,> 10,COc1ccc2[nH]c3c(c2c1)C(=O)c1cnccc1C3=O

Structure (SMILES),IC50 (HCT-116) [µM],IC50 (HL-60) [µM]
CC[C@@]1(O)C(=O)OCc2c1cc1n(c2=O)Cc2cc3ccccc3nc2-1 [CAMPTOTHECIN],0.159,0.019
